Data set [1] in a line: Cytotoxicity against mouse BV-2 cells assessed as reduction in cell viability by crystal violet staining based assay. The data set is classed as toxicity.
Data set [2] is described as follows: Therapeutic index, ratio of IC50 for cytotoxicty against mouse BV-2 cells assessed as reduction in cell viability by crystal violet staining based assay to IC50 for nti-neuroinflammatory activity in mouse BV-2 cells assessed as inhibition of LPS-induced NO production. The format is toxicity. Particulars: read-out: Ratio IC50.
For data set [3], the system named is BV-2. As to the kind of experiment: Anti-neuroinflammatory activity in mouse BV-2 cells assessed as inhibition of LPS-induced NO production incubated for 24 hrs by microplate reader analysis. The data set is classed as functional, cell-based. Particulars: BV-2, 24 h.
The test system of data set [4] is Mus musculus. As to the kind of experiment: Anti-neuroinflammatory activity in naloxone precipitated morphine-induced BALB/c mouse assessed as reduction in naloxone precipitated withdrawal jumps at 0.2 microg/kg, ip administered with morphine 3 times daily for 3 days and on day 4 for 3 hrs prior to compound addition for 30 mins before naloxone addition and measured after 15 mins. The conditions noted are these: dose 0.2 µg/kg, time 45.0 min. The data set is classed as functional, organism-based.

The subject of data set [5] is BV-2. Nature of the data set: Anti-neuroinflammatory activity in LPS-induced mouse BV-2 cells assessed as reduction in IL-6 mRNA expression at 1 to 10 uM by qRT-PCR analysis. The data set is classed as functional, cell-based. The conditions noted are these: dose 1-10 µM. On the technique in general: Real-time PCR tracks product formation cycle by cycle.
Data set [6] in a line: Ratio of drug concentration in blood to plasma in BALB/c mouse at 10 mg/kg, po measured at 3 hrs. The format is ADME, organism-based. The conditions noted are these: in vivo.
The subject of data set [7] is BV-2. Nature of the data set: Anti-neuroinflammatory activity in LPS-induced mouse BV-2 cells assessed as reduction in IL-1beta mRNA expression at 10 uM by qRT-PCR analysis. The format is functional, cell-based.
Data set [8] can be described thus: Cmax in BALB/c mouse at 10 mg/kg, po measured upto 4 hrs by mS-HPLC analysis. Particulars: in vivo. The format is ADME, organism-based. Further details: time < 4 hrs, dose 10 mg/kg, route po.
Data set [9] can be described thus: MRT in BALB/c mouse at 10 mg/kg, po measured upto 4 hrs by mS-HPLC analysis. The data set is classed as ADME, organism-based. The conditions noted are these: in vivo.
Data set [10] has as its system Mus musculus. Nature of the data set: Anti-neuroinflammatory activity in morphine-induced BALB/c mouse assessed as […] in locomotor activity 0.2 mg/kg, ip administered once daily for 7 days and measured after 60 mins. The format is functional, organism-based. The conditions noted are these: time 169.0 hrs.
Data set [11] concerns BV-2. As to the kind of experiment: Anti-neuroinflammatory activity in LPS-induced mouse BV-2 cells assessed as reduction in TNF-alpha mRNA expression at 1 to 10 uM by qRT-PCR analysis. The conditions noted are these: dose 1-10 µM. The data set is classed as functional, cell-based.
A short description of data set [12]: Half life in BALB/c mouse at 10 mg/kg, po measured upto 4 hrs by mS-HPLC analysis. The format is ADME, organism-based. The conditions noted are these: in vivo.
Data set [13] in a line: AUC (0 to t) in BALB/c mouse at 10 mg/kg, po measured upto 4 hrs by mS-HPLC analysis. The data set is classed as ADME, organism-based. The conditions noted are these: in vivo.
Data set [14] relates to Mus musculus. Nature of the data set: Anti-neuroinflammatory activity in morphine-induced BALB/c mouse assessed as inhibition of behavioral sensitization at 0.2 mg/kg, ip administered once daily for 7 days. The data set is classed as functional, organism-based. Particulars: time 7.0 day.
Data set [15] is described as follows: Toxicity in BALB/c mouse assessed as cognitive impairment by measuring time spent on new arm at 10 mg/kg, ip administered once daily for 3 days and measured after 45 mins by Y maze test. Particulars: in vivo, 72.75 h, time 4365 min. The format is organism-based.

Each structure is given as a SMILES string. pIC50: −log10 of the molar value. Activity calls are given as the source filed them. The rule behind the calls is not given here. Bounds are passed on as bounds.

Here are results for 22 molecules from ChEMBL document CHEMBL5360639, “Cannabidiol Analogue CIAC001 for the Treatment of Morphine-Induced Addiction by Targeting PKM2” (J Med Chem, 2023).

The term pIC50 denotes −log10 of the IC50, conventionally taken in molar units. Consider `C=C(C)[C@@H]1CCC(C)=C[C@H]1c1c(O)cc(CCCCC)cc1OCC`, for which the pIC50 in data set [1] was 3.75. Moreover, the selectivity ratio in data set [2] turned out to be 1.1.
Consider `C=C(C)[C@@H]1CCC(C)=C[C@H]1c1c(O)cc(CCC)cc1O` [CANNABIDIVARIN], for which the negative-log IC50 (pIC50) in data set [1] was 4.74; in the data set on BV-2 [3], 5.28. The selectivity ratio in [2] was found to be 3.5.
As usually defined, the Cmax is the maximum level reached in the sampled fluid or tissue. One may read the MRT as the average time that molecules of a dose stay in the body. Broadly, the half-life is the time in which the quantity being followed falls by half. Low readings indicate rapid decline, high ones slow decline. As for `C=C(C)[C@@H]1CCC(C)=C[C@H]1c1c(O)cc(CCCCC)cc1O` [CANNABIDIOL], the outcome in the data set on Mus musculus [4], in the data set with BV-2 [5], in the data set with BV-2 [7], with Mus musculus [10], with BV-2 [11] and in the data set on Mus musculus [14] was inactive. For the same molecule, the negative logarithm of the IC50 (pIC50) is 5.07 in [1] and 4.91 in the data set with BV-2 [3]. Further, in data set [6], the Ratio was less than 100%. Moreover, the concentration in [8] peaked (Cmax) at 98.1 ng/g. Besides, in data set [9], the MRT worked out at 42 min. In addition, in data set [12], the half-life is 30 min. In [13], this molecule had an AUCt of 66.7 ng·h/g. Also, the selectivity ratio in data set [2] worked out at 0.7.
As for `C=C(C)[C@@H]1CCC(C)=C[C@H]1c1c(OC)cc(CCCCC)cc1OC`, the figures for the pIC50 (in [1]; in the data set with BV-2 [3]) were less than 3.70 and less than 4.70, respectively.
As for `C=C(C)[C@@H]1CCC(C)=C[C@H]1c1c(O)cc(CCCCCCC)cc1O`, the pIC50 is 4.85 in [1] and 4.38 with BV-2 [3]. Besides, the selectivity ratio in data set [2] is 0.3.
For the molecule `C=C(C)[C@@H]1CCC(C)=C[C@H]1c1c(O)cc(CCCCC)cc1OCCC`, the pIC50 in data set [1] is less than 3.70.
Turning to `C=CCOc1cc(CCCCC)cc(OCC=C)c1[C@@H]1C=C(C)CC[C@H]1C(=C)C`, the pIC50 in data set [1] was less than 3.70.
Regarding `CCCCCc1cc(O)c2c(c1)OC(C)(C)[C@@H]1CCC(C)=C[C@@H]21` [DRONABINOL], the Activity entry in data set [15] is listed as “Toxic”.
Turning to `C=C(C)[C@@H]1CCC(C)=C[C@H]1c1c(OCCC)cc(CCCCC)cc1OCCC`, the pIC50 in data set [1] was less than 3.70.
As to `C=C(C)[C@@H]1CCC(C)=C[C@H]1c1c(O)cc(C(C)n2ccnn2)cc1O` (stereo partly specified), the pIC50 in [1] was 4.11; with BV-2 [3] it was 4.44. In data set [2], the selectivity ratio was 2.1.
With `C=C(C)[C@@H]1CCC(C)=C[C@H]1c1c(O)cc(CCCCCCCCCCCC)cc1O`, the pIC50 in data set [1] is less than 3.70.
In the case of `C=CCOc1cc(CCCCC)cc(O)c1[C@@H]1C=C(C)CC[C@H]1C(=C)C`, the pIC50 in data set [1] was 4.15; in the data set with BV-2 [3], 4.22. Also, the selectivity ratio in data set [2] stood at 0.7.
Take `C=C(C)[C@@H]1CCC(C)=C[C@H]1c1c(OCC)cc(CCCCC)cc1OCC`: in [1], the pIC50 was less than 3.70.
For the molecule `C=C(C)[C@@H]1CCC(C)=C[C@H]1c1c(O)cc(CC)cc1O`, the pIC50 in data set [1] is 4.65; with BV-2 [3] it was 5.60. Moreover, the selectivity ratio in [2] worked out at 9.1.
In the same order, the values of `C=C(C)[C@@H]1CCC(C)=C[C@H]1c1c(O)cc(CCCCC)cc1OC` are 4.24, 4.43 and 1.6.
In the same order, the values of `C=C(C)[C@@H]1CCC(C)=C[C@H]1c1c(O)cc(CCCC)cc1O` are 4.95, 5.30 and 2.2.
The matching figures for `C=C(C)[C@@H]1CCC(C)=C[C@H]1c1c(O)cc(CCCCCC)cc1O`: 4.72, 5.68 and 9.
As to `C=C(C)[C@@H]1CCC(C)=C[C@H]1c1c(O)cc(C(C)n2cccc2)cc1O` (stereo partly specified), the pIC50 in data set [1] was 3.81; in the data set on BV-2 [3], 4.62. In addition, the selectivity ratio in data set [2] was 6.5.
On to `C=C(C)[C@@H]1CCC(C)=C[C@H]1c1c(O)cc(CCCCCCCC)cc1O`, for which the pIC50 in data set [1] was 4.58. The selectivity ratio in data set [2] was determined as 0.2.
As for `C=C(C)[C@@H]1CCC(C)=C[C@H]1c1c(O)cc(C(C)n2ccnc2)cc1O` (stereo partly specified), the pIC50 in [1] is 4.49; with BV-2 [3], 5.36. In data set [2], the selectivity ratio is 7.4.
The matching figures for `C#CCOc1cc(CCCCC)cc(O)c1[C@@H]1C=C(C)CC[C@H]1C(=C)C`: 4.19, 4.00 and 1.2.
Consider `C#CCOc1cc(CCCCC)cc(OCC#C)c1[C@@H]1C=C(C)CC[C@H]1C(=C)C`, for which the pIC50 is less than 3.70 in data set [1] and 3.70 in the data set with BV-2 [3].
